In patent US10221173B2, “Chemical compounds” (AstraZeneca AB, priority 2017, dated 2019):
Converted amounts (≈) assume the structure as drawn.

Columns and labels:
[1] = molecular target: T1, Estrogen Receptor (ERα) in MCF-7 cells (Homo sapiens (Human), UniProt P03372); test: Western blotting assay, ER down-regulation in MCF-7; format: cell-based; settings: MCF-7, 100 nM compound, 48 h, vs 100 nM fulvestrant
[2] = molecular target: T1, Estrogen Receptor (ERα) in MCF-7 cells; test: MCF-7 ER down-regulation assay (immuno-fluorescence); format: cell-based
[3] = molecular target: recombinant human Estrogen Receptor alpha ligand binding domain (ER alpha-LBD (GST)) (Homo sapiens (Human), UniProt P03372); test: ERα binding assay (LanthaScreen TR-FRET competition)
Method: The ability of compounds to bind to isolated Estrogen Receptor Alpha Ligand binding domain (ER alpha—LBD (GST)) was assessed in competition assays using a LanthaScreen Time-Resolved Fluorescence Resonance Energy Transfer (TR-FRET) detection end-point. For the LanthaScreen TR-FRET endpoint, a suitable fluorophore (Fluormone ES2, ThermoFisher, Product code P2645) and recombinant human Estrogen Receptor alpha ligand binding domain, residues 307-554 (expressed and purified in-house) were used to measure compound binding. The assay principle is that ER alpha-LBD (GST) is added to a fluorescent ligand to form a receptor/fluorophore complex. A terbium-labelled anti-GST antibody (Product code PV3551) is used to indirectly label the receptor by binding to its GST tag, and competitive binding is detected by a test compound's ability to displace the fluorescent ligand, resulting in a loss of TR-FRET signal between the Tb-anti-GST antibody and the tracer. The assay was performed as follows with all reagent additions carried out using the Beckman Coulter BioRAPTR FRD microfluidic workstation: • 1. Acoustic dispense 120 nL of the test compound into a black low volume 384 well assay plates. • 2. Prepare 1× ER alpha-LBD/Tb-antiGST Ab in ES2 screening buffer and incubate for 15 minutes. • 3. […] Cover the assay plate to protect the reagents from light and evaporation, and incubate at room temperature for 4 hours. • 5. Excite at 337 nm and measure the fluorescent emission signal of each well at 490 nm and 520 nm using the BMG PheraSTAR.
TR-FRET dose response data obtained with each compound was exported into a suitable software package (such as Origin or Genedata) to perform curve fitting analysis. Competitive ER alpha binding was expressed as an IC50 value.

hERG potassium channel = hERG potassium channel (Homo sapiens (Human), UniProt Q12809)
Method: The assay was conducted as follows with all reagents used at room temperature unless otherwise stated.
All compounds were acoustically dispensed in quadruplicate using a Labcyte Echo.
Calculation of results is performed using APC package within Genedata. For the routine normalization of well data with Neutral and Inhibitor control well groups as reference, GeneData Assay Analyzer uses the following equation to normalize the signal values to the desired signal range:
[formula] x is the measured raw signal value of a well is the median of the measured signal values for the Central Reference (Neutral) wells on a plate is the median of the measured signal values for the Scale Reference (Inhibitor) wells on a plate CR is the desired median normalized value for the Central Reference (Neutral) SR is the desired median normalized value for the Scale Reference (Inhibitor)

[4] = Log D (shake flask, 1-octanol/aqueous buffer); format: physicochemical; settings: 1-octanol/aqueous buffer, pH 7.4, pH 7.4
[5] = Human plasma protein binding (equilibrium dialysis); format: in vitro ADME
[6] = molecular target: estrogen receptor (ERα) in CAMA-1 cells (Homo sapiens (Human), UniProt P03372); test: Western blotting assay, ER down-regulation in CAMA-1; format: cell-based; settings: CAMA-1, 100 nM compound, 48 h, vs 100 nM fulvestrant
[7] = Thermodynamic solubility (shake-flask); format: physicochemical; settings: aqueous phosphate buffer, 25 °C, pH 7.4, aqueous buffer, thermodynamic from solid, phosphate buffer pH 7.4, 24 hours

Chain of hERG potassium channel (Q12809 whole entry): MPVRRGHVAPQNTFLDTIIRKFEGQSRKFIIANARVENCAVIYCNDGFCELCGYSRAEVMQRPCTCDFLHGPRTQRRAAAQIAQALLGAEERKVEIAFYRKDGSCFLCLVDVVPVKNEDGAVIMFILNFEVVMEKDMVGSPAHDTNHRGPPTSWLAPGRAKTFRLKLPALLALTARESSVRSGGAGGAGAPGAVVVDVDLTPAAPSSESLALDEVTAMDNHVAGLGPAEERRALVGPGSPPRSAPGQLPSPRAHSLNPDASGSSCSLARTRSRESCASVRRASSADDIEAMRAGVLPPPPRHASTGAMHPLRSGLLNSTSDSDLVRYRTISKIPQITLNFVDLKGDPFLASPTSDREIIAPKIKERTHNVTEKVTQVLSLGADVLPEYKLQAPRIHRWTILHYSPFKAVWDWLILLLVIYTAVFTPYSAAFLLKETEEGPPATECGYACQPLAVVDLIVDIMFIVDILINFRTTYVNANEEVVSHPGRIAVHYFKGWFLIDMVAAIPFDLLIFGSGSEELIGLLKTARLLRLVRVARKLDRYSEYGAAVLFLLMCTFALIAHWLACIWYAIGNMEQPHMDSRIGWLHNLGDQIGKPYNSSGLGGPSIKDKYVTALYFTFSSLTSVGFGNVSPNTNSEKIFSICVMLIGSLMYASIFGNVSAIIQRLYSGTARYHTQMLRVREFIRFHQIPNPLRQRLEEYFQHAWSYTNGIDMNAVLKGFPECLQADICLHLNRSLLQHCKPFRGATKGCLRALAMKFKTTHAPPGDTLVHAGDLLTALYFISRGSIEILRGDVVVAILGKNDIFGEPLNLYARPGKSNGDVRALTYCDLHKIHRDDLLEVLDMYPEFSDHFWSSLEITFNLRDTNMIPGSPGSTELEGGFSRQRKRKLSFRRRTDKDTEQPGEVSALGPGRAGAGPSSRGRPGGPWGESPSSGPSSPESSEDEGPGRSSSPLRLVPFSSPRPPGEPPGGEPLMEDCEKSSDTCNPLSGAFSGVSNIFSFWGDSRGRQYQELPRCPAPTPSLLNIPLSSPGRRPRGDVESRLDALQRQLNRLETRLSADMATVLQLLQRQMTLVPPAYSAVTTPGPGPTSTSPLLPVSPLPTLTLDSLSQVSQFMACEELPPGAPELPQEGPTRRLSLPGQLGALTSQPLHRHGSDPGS
Chain of recombinant human Estrogen Receptor alpha ligand binding domain (ER alpha-LBD (GST)) (P03372 307-554): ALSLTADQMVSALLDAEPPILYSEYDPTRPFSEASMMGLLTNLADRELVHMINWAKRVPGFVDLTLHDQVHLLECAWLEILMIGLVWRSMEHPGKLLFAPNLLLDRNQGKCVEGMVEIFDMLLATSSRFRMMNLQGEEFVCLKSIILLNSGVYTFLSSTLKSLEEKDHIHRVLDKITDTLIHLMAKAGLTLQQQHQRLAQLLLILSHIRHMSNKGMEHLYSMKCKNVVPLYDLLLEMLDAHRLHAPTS
T1 sequence (P03372 whole entry): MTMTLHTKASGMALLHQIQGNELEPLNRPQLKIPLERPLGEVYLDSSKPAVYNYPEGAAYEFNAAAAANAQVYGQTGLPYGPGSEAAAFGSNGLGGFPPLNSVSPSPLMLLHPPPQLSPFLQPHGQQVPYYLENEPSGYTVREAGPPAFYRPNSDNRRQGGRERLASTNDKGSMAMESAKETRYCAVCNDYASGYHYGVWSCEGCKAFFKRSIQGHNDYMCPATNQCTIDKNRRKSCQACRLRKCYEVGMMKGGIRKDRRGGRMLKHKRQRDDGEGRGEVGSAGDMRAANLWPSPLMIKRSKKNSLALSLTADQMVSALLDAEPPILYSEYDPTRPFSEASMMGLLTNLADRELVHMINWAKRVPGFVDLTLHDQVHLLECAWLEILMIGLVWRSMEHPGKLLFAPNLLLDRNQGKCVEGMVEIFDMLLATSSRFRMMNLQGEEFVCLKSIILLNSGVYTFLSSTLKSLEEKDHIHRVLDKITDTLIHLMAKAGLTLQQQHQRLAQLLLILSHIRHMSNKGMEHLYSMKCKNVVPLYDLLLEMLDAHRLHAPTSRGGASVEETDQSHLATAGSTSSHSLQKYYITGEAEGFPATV
Chain of estrogen receptor (ERα) in CAMA-1 cells (P03372 whole entry): as above

## C[C@@H]1Cc2c([nH]c3ccccc23)[C@@H](c2c(F)cnc(OCCNCCCF)c2F)N1CC(F)(F)F [Example 107, N-(2-((3,5-difluoro-4-((1R,3R)-3-methyl-2-(2,2,2-trifluoroethyl)-2,3,4,9-tetrahydro-1H-pyrido[3,4-b]indol-1-yl)pyridin-2-yl)oxy)ethyl)-3-fluoropropan-1-amine]
[1]
  MCF7 Western % ER deg vs Fv: 95%
[2]
  IC50: 0.21 nM
[3]
  IC50: 1.3 nM
hERG potassium channel
  IC50: 8100 nM
[4]
  logD: 3.6
[5]
  Human plasma protein binding (% free): 1 % free
[6]
  CAMA1 Western % ER deg vs Fv: 98%
[7]
  solubility at 24 h: 120 µM (≈ 60.1 µg/mL)

## C[C@@H]1Cc2c([nH]c3ccccc23)[C@@H](c2c(F)ccc(OCCNCCCF)c2F)N1CC(F)F [Example 51, N-(2-(3-((1R,3R)-2-(2,2-difluoroethyl)-3-methyl-2,3,4,9-tetrahydro-1H-pyrido[3,4-b]indol-1-yl)-2,4-difluorophenoxy)ethyl)-3-fluoropropan-1-amine]
[1]
  MCF7 Western % ER deg vs Fv: 92%
[2]
  IC50: 0.12 nM
[3]
  IC50: 1.2 nM
hERG potassium channel
  IC50: 4100 nM
[4]
  logD: 3.2
[5]
  Human plasma protein binding (% free): 2.3 % free
[6]
  CAMA1 Western % ER deg vs Fv: 93%
[7]
  solubility at 24 h: 122 µM (≈ 58.7 µg/mL)

## C[C@@H]1Cc2c([nH]c3ccccc23)[C@@H](c2c(F)cnc(OCCNCCCF)c2Cl)N1CC(F)(F)CO [Example 111, 3-((1R,3R)-1-(3-chloro-5-fluoro-2-(2-((3-fluoropropyl)amino)ethoxy)pyridin-4-yl)-3-methyl-1,3,4,9-tetrahydro-2H-pyrido[3,4-b]indol-2-yl)-2,2-difluoropropan-1-ol]
[1]
  MCF7 Western % ER deg vs Fv: 84%
[2]
  IC50: 0.07 nM
[3]
  IC50: 0.6 nM
[4]
  logD: 3.1
[5]
  Human plasma protein binding (% free): 1.4 % free
[6]
  CAMA1 Western % ER deg vs Fv: 92%
[7]
  solubility at 24 h: 469 µM (≈ 248 µg/mL)

## COc1ccc(OCCNCCCF)cc1[C@@H]1c2[nH]c3ccccc3c2C[C@@H](C)N1CC(F)(F)CO [Example 8, 2,2-Difluoro-3-((1R,3R)-1-(5-(2-((3-fluoropropyl)amino)ethoxy)-2-methoxyphenyl)-3-methyl-1,3,4,9-tetrahydro-2H-pyrido[3,4-b]indol-2-yl)propan-1-ol]
[1]
  MCF7 Western % ER deg vs Fv: 98%
[6]
  CAMA1 Western % ER deg vs Fv: 93%
[7]
  solubility at 24 h: 617 µM (≈ 312 µg/mL)

## COc1cnc(OCCNCCCF)cc1[C@@H]1c2[nH]c3ccccc3c2C[C@@H](C)N1CC(F)(F)F [Example 12, 3-fluoro-N-(2-((5-methoxy-4-((1R,3R)-3-methyl-2-(2,2,2-trifluoroethyl)-2,3,4,9-tetrahydro-1H-pyrido[3,4-b]indol-1-yl)pyridin-2-yl)oxy)ethyl)propan-1-amine]
[1]
  MCF7 Western % ER deg vs Fv: 92%
[2]
  IC50: 0.059 nM
[3]
  IC50: 0.62 nM
hERG potassium channel
  IC50: 8200 nM
[6]
  CAMA1 Western % ER deg vs Fv: 89%

## C[C@@H]1Cc2c([nH]c3ccccc23)[C@@H](c2cc(OCCNCCCF)ccc2Cl)N1CC(F)(F)F [Example 22, N-(2-(4-chloro-3-((1R,3R)-3-methyl-2-(2,2,2-trifluoroethyl)-2,3,4,9-tetrahydro-1H-pyrido[3,4-b]indol-1-yl)phenoxy)ethyl)-3-fluoropropan-1-amine]
[1]
  MCF7 Western % ER deg vs Fv: 96%
[2]
  IC50: 0.12 nM
[3]
  IC50: 1.4 nM
[4]
  logD: 4.2
[5]
  Human plasma protein binding (% free): 0.61 % free
[6]
  CAMA1 Western % ER deg vs Fv: 96%
[7]
  solubility at 24 h: 0.7 µM (≈ 0.349 µg/mL)

## COc1ccc(OCCNCCCF)cc1[C@@H]1c2[nH]c3ccccc3c2C[C@@H](C)N1CC(F)F [Example 6, N-(2-(3-((1R,3R)-2-(2,2-difluoroethyl)-3-methyl-2,3,4,9-tetrahydro-1H-pyrido[3,4-b]indol-1-yl)-4-methoxyphenoxy)ethyl)-3-fluoropropan-1-amine]
[1]
  MCF7 Western % ER deg vs Fv: 97%
[6]
  CAMA1 Western % ER deg vs Fv: 81%
[7]
  solubility at 24 h: 154 µM (≈ 73.2 µg/mL)

## CCc1ccc(OCCNCCCF)cc1[C@@H]1c2[nH]c3ccccc3c2C[C@@H](C)N1CC(F)(F)F [Example 21, N-(2-(4-ethyl-3-((1R,3R)-3-methyl-2-(2,2,2-trifluoroethyl)-2,3,4,9-tetrahydro-1H-pyrido[3,4-b]indol-1-yl)phenoxy)ethyl)-3-fluoropropan-1-amine]
[1]
  MCF7 Western % ER deg vs Fv: 99%
[2]
  IC50: 1.6 nM
[3]
  IC50: 2.6 nM
[4]
  logD: 4.6
[5]
  Human plasma protein binding (% free): 0.10 % free
[6]
  CAMA1 Western % ER deg vs Fv: 95%
[7]
  solubility at 24 h: 3 µM (≈ 1.47 µg/mL)

## C[C@@H]1Cc2c([nH]c3ccccc23)[C@@H](c2c(F)ccc(OCCNCCCF)c2F)N1C[C@H](C)C(=O)O [Example 58, (S)-3-((1R,3R)-1-(2,6-difluoro-3-(2-((3-fluoropropyl)amino)ethoxy)phenyl)-3-methyl-1,3,4,9-tetrahydro-2H-pyrido[3,4-b]indol-2-yl)-2-methylpropanoic acid]
[1]
  MCF7 Western % ER deg vs Fv: 76%
[6]
  CAMA1 Western % ER deg vs Fv: 83%
[7]
  solubility at 24 h: > 1000 µM

## C[C@@H]1Cc2c([nH]c3ccccc23)[C@@H](c2nccc(OCCNCCCF)c2F)N1CC(F)(F)F [Example 92, 3-fluoro-N-(2-((3-fluoro-2-((1S,3R)-3-methyl-2-(2,2,2-trifluoroethyl)-2,3,4,9-tetrahydro-1H-pyrido[3,4-b]indol-1-yl)pyridin-4-yl)oxy)ethyl)propan-1-amine]
[1]
  MCF7 Western % ER deg vs Fv: 93%
[2]
  IC50: 0.4 nM
[3]
  IC50: 1.6 nM
hERG potassium channel
  IC50: 23000 nM
[4]
  logD: 2.7
[6]
  CAMA1 Western % ER deg vs Fv: 91%
[7]
  solubility at 24 h: 468 µM (≈ 226 µg/mL)

## C[C@@H]1Cc2c([nH]c3ccccc23)[C@@H](c2cccc(OCCNCCCF)c2)N1CC(F)(F)F [Example 16, 3-fluoro-N-(2-(3-((1R,3R)-3-methyl-2-(2,2,2-trifluoroethyl)-2,3,4,9-tetrahydro-1H-pyrido[3,4-b]indol-1-yl)phenoxy)ethyl)propan-1-amine]
[1]
  MCF7 Western % ER deg vs Fv: 89%
[6]
  CAMA1 Western % ER deg vs Fv: 83%
[7]
  solubility at 24 h: 74 µM (≈ 34.3 µg/mL)

## C[C@@H](CN1[C@H](c2c(F)cnc(OCCNCCCF)c2Cl)c2[nH]c3ccccc3c2C[C@H]1C(F)(F)F)C(=O)O [Example 142, (S)-3-((1R,3S)-1-(3-chloro-5-fluoro-2-(2-((3-fluoropropyl)amino)ethoxy)pyridin-4-yl)-3-(trifluoromethyl)-1,3,4,9-tetrahydro-2H-pyrido[3,4-b]indol-2-yl)-2-methylpropanoic acid]
[1]
  MCF7 Western % ER deg vs Fv: 85%
[2]
  IC50: 0.95 nM
[3]
  IC50: 1.5 nM
[6]
  CAMA1 Western % ER deg vs Fv: 80%

## C[C@@H]1Cc2c([nH]c3ccccc23)[C@@H](c2cccc(OCCNCCCF)c2)N1CC1(F)COC1 [Example 1, 3-Fluoro-N-(2-(3-((1R,3R)-2-((3-fluorooxetan-3-yl)methyl)-3-methyl-2,3,4,9-tetrahydro-1H-pyrido[3,4-b]indol-1-yl)phenoxy)ethyl)propan-1-amine]
[1]
  MCF7 Western % ER deg vs Fv: 79%
hERG potassium channel
  IC50: 4400 nM
[6]
  CAMA1 Western % ER deg vs Fv: 66%
[7]
  solubility at 24 h: 303 µM (≈ 142 µg/mL)

## Cc1c(OCCNCCC(F)F)ccc(F)c1[C@@H]1c2[nH]c3ccccc3c2C[C@@H](C)N1C[C@H](C)C(=O)O [Example 124, (S)-3-((1R,3R)-1-(3-(2-((3,3-Difluoropropyl)amino)ethoxy)-6-fluoro-2-methylphenyl)-3-methyl-1,3,4,9-tetrahydro-2H-pyrido[3,4-b]indol-2-yl)-2-methylpropanoic acid]
[1]
  MCF7 Western % ER deg vs Fv: 93%
[2]
  IC50: 0.68 nM
[3]
  IC50: 3.9 nM
[6]
  CAMA1 Western % ER deg vs Fv: 82%

## COc1ccc(OCCNCCCF)cc1[C@@H]1c2[nH]c3ccccc3c2C[C@@H](C)N1CC1(F)COC1 [Example 4, 3-Fluoro-N-(2-(3-((1R,3R)-2-((3-fluorooxetan-3-yl)methyl)-3-methyl-2,3,4,9-tetrahydro-1H-pyrido[3,4-b]indol-1-yl)-4-methoxyphenoxy)ethyl)propan-1-amine]
[1]
  MCF7 Western % ER deg vs Fv: 56%
[6]
  CAMA1 Western % ER deg vs Fv: 75%
[7]
  solubility at 24 h: 543 µM (≈ 271 µg/mL)

## C[C@@H]1Cc2c([nH]c3ccccc23)[C@@H](c2c(F)ccc(OCCNCCCF)c2F)N1CC(F)(F)F [Example 9, N-(2-(2,4-difluoro-3-((1R,3R)-3-methyl-2-(2,2,2-trifluoroethyl)-2,3,4,9-tetrahydro-1H-pyrido[3,4-b]indol-1-yl)phenoxy)ethyl)-3-fluoropropan-1-amine]
[1]
  MCF7 Western % ER deg vs Fv: 97%
[2]
  IC50: 0.088 nM
[3]
  IC50: 1.2 nM
[6]
  CAMA1 Western % ER deg vs Fv: 101%

## Cc1c(OCCNCCCF)ncc(F)c1[C@@H]1c2[nH]c3ccccc3c2C[C@@H](C)N1CC(F)(F)CO [Example 110, 2,2-difluoro-3-((1R,3R)-1-(5-fluoro-2-(2-((3-fluoropropyl)amino)ethoxy)-3-methylpyridin-4-yl)-3-methyl-1,3,4,9-tetrahydro-2H-pyrido[3,4-b]indol-2-yl)propan-1-ol]
[1]
  MCF7 Western % ER deg vs Fv: 91%
[2]
  IC50: 0.045 nM
[3]
  IC50: 0.43 nM
hERG potassium channel
  IC50: 2800 nM
[4]
  logD: 3.1
[6]
  CAMA1 Western % ER deg vs Fv: 83%
[7]
  solubility at 24 h: 939 µM (≈ 478 µg/mL)

## Cc1c(OCCNCCCF)ccc(F)c1[C@@H]1c2[nH]c3ccc(F)cc3c2C[C@@H](C)N1C[C@@H](C)C(=O)O [Example 121, (R)-3-((1R,3R)-6-fluoro-1-(6-fluoro-3-(2-((3-fluoropropyl)amino)ethoxy)-2-methylphenyl)-3-methyl-1,3,4,9-tetrahydro-2H-pyrido[3,4-b]indol-2-yl)-2-methylpropanoic acid]
[1]
  MCF7 Western % ER deg vs Fv: 85%
[2]
  IC50: 0.53 nM
[3]
  IC50: 2.8 nM
[6]
  CAMA1 Western % ER deg vs Fv: 107%
